PMC6888133, “Identification and Characterization of a Fatty Acid- and Retinoid-Binding Protein Gene (Ar-far-1) from the Chrysanthemum Foliar Nematode, Aphelenchoides ritzemabosi” (International Journal of Molecular Sciences, 2019)
pKd: −log10 of the molar value.

Biological target: T1, rAr-FAR-1 (Ar-FAR-1) (Aphelenchoides ritzemabosi, UniProt A0A2D0WIZ9)
T1 construct: full-length 181 aa ORF with signal peptide (18 aa, cleavage Ala18/Glu19); E. coli BL21(DE3)
T1 sequence (A0A2D0WIZ9 1-181): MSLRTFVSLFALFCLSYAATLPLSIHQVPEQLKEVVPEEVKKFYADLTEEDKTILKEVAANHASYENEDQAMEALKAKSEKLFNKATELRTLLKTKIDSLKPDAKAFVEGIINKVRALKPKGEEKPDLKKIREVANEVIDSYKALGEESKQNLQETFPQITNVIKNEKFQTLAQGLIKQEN
Assay: fluorescence titration
Type: binding

## CN(C)c1cccc2c(S(=O)(=O)NCCCCCCCCCCC(=O)O)cccc12 [DAUDA, 11-(5-dimethylaminonaphthalene-1-sulfonylamino) undecanoic acid]
  pKd: 7.39

## CC1=C(/C=C/C(C)=C/C=C/C(C)=C/CO)C(C)(C)CCC1 [retinol]
  pKd: 7.17
